Data published in US7563822B2, “Agents for the prevention or treatment of renal diseases” (Kissei Pharmaceutical Co., Ltd., priority 2002, dated 2009).

What was measured:
[1] = test system: Normal human mesangial cells; experiment: Inhibitory effect on human FXa-induced human mesangial cell proliferation (DNA amount by fluorescence); type: cell-based; settings: for Fluorescence intensity: FXa 20 nM, 111 hours culture
Description: Normal human mesangial cells were seeded at 10000 cells/200 μL of Mesangial cell growth medium/well in 96-well plates, and cultured in CO2 incubator (37° C., O2:CO2=95:5). One day after seeding, cells were rinsed with Mesangial cell basal medium containing 0.5% bovine serum albumin (not containing growth factors), and then replaced the medium with Mesangial cell basal medium containing 0.5% bovine serum albumin (not containing growth factors) which was containing human activated coagulation factor X (hereinafter referred to as FXa; Calbiochem) and a test compound of certain concentrations, and cultured for 111 hours in CO2 incubator (37° C., O2:CO2=95:5). After cultivation, cells were rinsed with Hank's balanced salt solution at 250 μL/well, and frozen preservation of the cells at −30° C. was carried out until the measurement of the amount of DNAs for every plate. For measurement of the amount of DNAs, fluorescence intensity (measurement condition: excitation 480 nm; emission 520 nm) was estimated using Cell Proliferation Assay Kit (Molecular Probe). […] In addition, it is shown that * in the Table has a significant difference (p<0.05) compared with the group which was added FXa alone.

ICR mice = experiment: Acute toxicity test, tail vein administration; type: in vivo; settings: male ICR mice, 24 hours
Description: Male ICR mice aged 7 weeks (SLC) were divided into several groups consisting of 5 mice. […] The solution was administered through the tail vein at an infusion rate of 1 mL/minute. Observations were performed at constant interval, and the survival rate was judged for 24 hours.

db/db mice [2] = experiment: Inhibitory effect on hypercoagulable state in db/db mice (plasma TAT level); type: in vivo; settings: 100 mg/kg orally, one hour after administration
Description: Thirty two weeks old male db/db mice (11 individuals) and wild type +m/+m mice (6 individuals) were used. db/db Mice were divided into two groups, a 0.5% methylcellulose solution containing a test compound at 100 mg/kg was orally administrated to one group (test compound group, 6 individuals). On the other hand, a 0.5% methylcellulose solution alone was orally administrated to another group (control group, 5 individuals) and +m/+m mice. One hour after administration, mice were anesthetized with diethyl ether. […] Plasma thrombin-antithrombin III complex (TAT) level was measured using an EIA (enzyme immunoassay) kit (Dade behring). […] In addition, it is shown that * in the Table has a significant difference (p<0.05) compared with control group.

db/db mice [3] = experiment: Inhibitory effect on development of diabetic nephropathy in db/db mice (urine albumin/creatinine ratio); type: in vivo; settings: 100 mg/kg orally twice a day for 10 weeks
Description: Six weeks old male db/db mice (20 individuals) and non-diabetic type db/+m mice (10 individuals) were used. db/db Mice were divided into two groups (each 10 individuals), a test compound suspended in a 0.5% methylcellulose solution was orally administrated at 100 mg/kg to one group (test compound group) twice a day. On the other hand, a 0.5% methylcellulose solution alone was orally administrated to another group (control group) and db/+m mice twice a day. After continuing administration for 10 weeks, urine collection was performed for each mouse using a metabolism cage for 24 hours. Insoluble substances in collected urine samples were removed by centrifugal separation. The urine albumin/creatinine ratio which can be obtained by rectifying the urine albumin concentration by the urine creatinine concentration was evaluated as the index of the urine protein excretion. In addition, the urine albumin/creatinine ratio was calculated based on the formula below. Urine albumin/creatinine ratio=Urine albumin concentration/Urine creatinine concentration Urine albumin concentration was measured using a Murine Microalbuminurea ELISA Kit (Exocell Icc.), and urine creatinine concentration was measured using a commercial kit for creatinine (Wako). […] In addition, it is shown that * in the Table has a significant difference (p<0.05) compared with control group.

Compound | Inhibition of human FXa-induced mesangial cell proliferation (in words) ([1]; FXa-induced human mesangial cells) | Fluorescence intensity ([1]; test compound 1 μM, FXa alone 227.0, no FXa 186.8) | Fluorescence intensity ([1]; test compound 10 μM, * p<0.05 vs FXa alone (227.0)) | Number of death (ICR mice; Method B: 100 mg/10 mL/kg) | Number of death (ICR mice; Method A: 50 mg/10 mL/kg) | Effect on plasma TAT level / hypercoagulable state (in words) (db/db mice [2]) | Plasma thrombin-antithrombin III complex level (db/db mice [2]; * p<0.05 vs control group (69.25)) | Inhibition of urine albumin excretion (in words) (db/db mice [3]) | Urine albumin/creatinine ratio (db/db mice [3]; 24 hours urine, * p<0.05 vs control group (0.386))
CS(=O)(=O)c1ccccc1-c1ccc(CCNS(=O)(=O)c2cc(C(=N)N)ccc2O)c(OCC(=O)O)c1.Cl [Compound 33, [4-[2-(5-Carbamimidoyl-2-hydroxybenzenesulfonylamino)-ethyl]-2′-methanesulfonoylbiphenyl-3-yloxy]acetic acidhydrochloride] | inhibited human FXa-induced mesangial cell proliferation concentration-dependently | 206.2 | 178.3* | 0/5 | – | – | – | – | –
CS(=O)(=O)c1ccccc1-c1ccc(CCNS(=O)(=O)c2cc(C(=N)NO)ccc2O)c(OCC(=O)O)c1 [Compound 47, [4-[2-[2-Hydroxy-5-(N-hydroxycarbamimidoyl)benzenesulfonylamino]ethyl]-2′-methanesulfonylbiphenyl-3-yloxy]acetic acid] | – | – | – | 0/5 | 0/5 | – | – | – | –
CCCCOC(=O)COc1cc(-c2ccccc2S(C)(=O)=O)ccc1CCNS(=O)(=O)c1cc(C(=N)NO)ccc1O.Cl [Compound 48, n-Butyl [4-[2-[2-Hydroxy-5-(N-hydroxycarbamimidoyl)-benzenesulfonylamino]ethyl]-2′-methanesulfonylbiphenyl-3-yloxy]acetate hydrochloride] | – | – | – | – | – | decreased plasma TAT level significantly | 8.31* | inhibited urine albumin excretion significantly | 0.202*
